{"source": "patent US12331121B2", "about": "“Efflux pump-cancer antigen multi-specific antibodies and compositions, reagents, kits and methods related thereto” (William Robert Arathoon Living Trust Dated August 29, 2016, priority 2019, dated 2025)", "key": {"[1]": {"test_system": "multidrug resistant N6ADR cells", "assay": "N6ADR tumor volume in mice (Example 2, FIG. 9)", "format": "in vivo", "details": "for effect on tumor volume with paclitaxel (chemosensitization): antibody dosed about 1-4 hrs prior to paclitaxel; for effect on tumor volume without paclitaxel: antibody on day 0, 4, 7, 11, no chemotherapeutic agent", "description": "N6ADR cells were injected into a cohort of 6 mice per test group prior to administration of the indicated antibodies. The antibodies were administered once palpable tumors reached a size of about 100-150 mm^3 (about 7 days after injection of tumor cells). Antibodies were administered on day 0, day 4, day 7, and day 11. Tumor volumes were measured and are plotted. Panel A: 15D3/MRK16 monoclonal anti-MDR1 antibody. Panel B: KT14/MRK16 monoclonal anti-CD47 antibody. Panel C: Co-administration of 15D3/MRK16 monoclonal anti-MDR1 antibody and KT14/MRK16 monoclonal anti-CD47 antibody. Panel D: KbisP1.1 antibody.\nThe indicated antibodies were administered with or without the chemotherapeutic agent paclitaxel. Antibody was dosed about 1-4 hrs prior to Paclitaxel."}, "[2]": {"target": "MDR1 (293T cells overexpressing MDR1) (Homo sapiens, UniProt P08183)", "experimental": "Binding specificity of the mAbs, Fab and Bispecific IgG1 was tested by FACS using 293T cell lines naturally expressing CD47, 293T naïve cells overexpressing human ABCB1 target, 293T naïve cells having ABCB1 knocked down using Lentiviral RNA vectors, CD47 knock out 293T cells and CD47 knock out 293T cells overexpressing human ABCB1. […] The cells were washed three times with FACS buffer (PBS containing 0.5% BSA). Alexa647 labeled goat anti-human antibody was added as a secondary antibody, and the samples were incubated on ice for another 1 hour. Samples were washed and analyzed using a BD FACS Canto (BD Biosciences).\nFACS measurement for MDR1 binding was performed as described in Example 1."}, "cynomolgus RBCs": {"test_system": "cynomolgus RBCs", "assay": "Binding to cynomolgus erythrocytes", "details": "FIG. 22B; in contrast to anti-CD47 5F9"}, "[3]": {"test_system": "human red blood cells (RBCs)", "assay": "Binding to human erythrocytes", "details": "FIG. 22A; in contrast to anti-CD47 5F9"}, "N6/ADR cells": {"test_system": "N6/ADR cells", "assay": "Vincristine cytotoxicity assay", "format": "cell-based", "details": "Homo sapiens; Table 5; vincristine titrated with antibody at 100 μg/mL (2× final concentration); 72 hr", "description": "Cytotoxicity Assays. The effect of antibodies on vincristine cytotoxicity was evaluated on N6/ADR, a doxorubicin-selected, B1-positive variant of the human acute lymphoblastic leukemia (ALL) cell line, NALM6. Cells were plated in 0.05 mL of Assay Media (RPMI-1640+10% FBS) at 5000 cells/well in white flat bottom 96-well tissue culture plates. Vincristine was prepared at 2× final assay concentration by serial dilution from 200 uM in assay media containing test antibodies or control antibodies at 100 μg/mL (2× final concentration), or valspodar, a small molecule B1 inhibitor at 7 uM (2× final concentration). An equivalent volume (0.05 mL) of the vincristine/antibody mixture was added to the N6/ADR cells in 96-well plates. The plates were then incubated at 37° C., in 5% CO2. After 72 hr plates were equilibrated to room temperature and cell viability assessed using Promega® CellTiter-Glo® Luminescent Cell Viability Assay according to the manufacturer's recommended protocol. Luminescence was measured on a Molecular Devices® FlexStation® 3 Multi-Mode Microplate Reader and data analyzed using GraphPad Prism 8.0 software."}, "[4]": {"target": "T1, PDL1 (293T cells overexpressing PDL1) (Homo sapiens, UniProt Q9NZQ7)", "T1 construct": "expressed in transfected cells; host or cells: 293T", "T1 sequence (Q9NZQ7 19-290)": "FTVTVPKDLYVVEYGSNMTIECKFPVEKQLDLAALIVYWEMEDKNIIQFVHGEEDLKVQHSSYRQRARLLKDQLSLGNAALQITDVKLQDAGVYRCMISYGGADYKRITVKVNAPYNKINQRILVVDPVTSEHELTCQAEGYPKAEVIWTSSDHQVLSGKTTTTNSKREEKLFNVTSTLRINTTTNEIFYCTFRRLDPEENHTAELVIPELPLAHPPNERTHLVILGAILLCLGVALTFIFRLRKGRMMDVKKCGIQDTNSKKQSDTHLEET", "assay": "PDL1 binding using 293T cells overexpressing PDL1"}, "NALM6 ADR cells": {"test_system": "NALM6 ADR cells", "excerpt": "Cells: NALM6 (ATCC) and NALM6 ADR (ATCC), B cell precursor lymphoblastic leukemia cell lines used in this study. NALM6 ADR is a multidrug resistant cell line derived from NALM6 cells.\nMice: Sixty-five 5-6-weeks-old female SCID-Beige mice (Charles River) were used in this study.\nInoculation-2×10^6 cells diluted in PBS:Matrigel (1:1) were subcutaneously injected using a 27G insulin syringe into fifty anesthetized 5-6-week-old female SCID-Beige mice under sterile conditions.\nNALM6 ADR subcutaneous tumors: Mice were randomized into nine groups of five mice each—(i) Control isotype IgG1 15 mg/kg, (ii) Control isotype IgG1 15 mg/kg and 5 mg/kg of paclitaxel, (iii) Control isotype IgG1 15 mg/kg and 20 mg/kg of paclitaxel, (iv) BisP1.1 15 mg/kg, (v) BisP1.1 15 mg/kg and 5 mg/kg of paclitaxel, (vi) BisP1.1 15 mg/kg and 20 mg/kg of paclitaxel (vii) Valspodar 20 mg/kg (viii) Valspodar 20 mg/kg and 5 mg/kg of paclitaxel and (ix) Valspodar 20 mg/kg and […]. Antibody, Valspodar and paclitaxel were dosed intraperitoneally twice a week for four consecutive weeks. Antibody/valspodar were injected at least 4 hours prior to paclitaxel injection. Paclitaxel preparation: Since paclitaxel is poorly soluble, a master stock of 50 mg/ml was prepared in absolute ethanol:Kolliphor (1:1). Prior to injection the stock was diluted to recommended doses of 5 mg/kg or 20 mg/kg with PBS maintaining a ratio of (1:16).\nMeasurements: Tumor measurements were done thrice a week using a calibrated Vernier Caliper and tumor volume calculated as per the formula ½*L*S*S where L is the long axis and s is the short axis of the tumor. Body weights were recorded before treatment started and were continuously monitored throughout the study. Animal survival was evaluated from the first day of treatment until death. To avoid suffering, mice were euthanized when turning moribund according to the above-mentioned predefined criteria: rapid weight loss, loss of ability to ambulate, labored respiration, or inability to drink or feed.\nStatistics: Tumor volume and body weights were compared between different experimental groups using exact one-way analysis of variance (ANOVA). Kaplan-Meier survival curves were compared between different treatment groups using the log-rank (Mantel-Cox) test. Statistical analyses were performed using Graph Pad Prism (GraphPad, San Diego, CA, USA) software. The level of significance was set at p<0.05 for all analyses."}, "NALM6 cells": {"test_system": "NALM6 cells", "assay": "NALM6 subcutaneous tumors in SCID-Beige mice", "format": "in vivo", "details": "paclitaxel 5 mg/kg and 20 mg/kg", "description": "NALM6 subcutaneous tumors: Mice were randomized into three groups of five mice each—(i) Control vehicle, (ii) 5 mg/kg and (iii) 20 mg/kg of paclitaxel."}, "[5]": {"assay": "Single dose cynomolgus monkey toxicity study", "format": "in vivo, cynomolgus monkeys (Macaca fascicularis)", "details": "post infusion; paclitaxel 2 mg/kg", "text": "Fifteen cynomolgus monkeys (Macaca fascicularis) were enrolled in a single dose study to evaluate KbisP1.1 toxicity."}}, "note": "Read-outs that look alike come from different tables or passages of the source.", "data": [{"molecule": "15D3/MRK16: anti-MDR1 antibody with two 15D3 heavy chains and two MRK16 light chains", "values": [{"measurement": "effect on tumor volume with paclitaxel (chemosensitization)", "setting": "[1]", "result": "rendered the chemoresistant N6ADR cells sensitive to paclitaxel"}, {"measurement": "effect on tumor volume without paclitaxel", "setting": "[1]", "result": "no significant effect on tumor volume"}]}, {"molecule": "necitumumab", "values": [{"measurement": "binding to MDR1 by FACS", "setting": "[2]", "result": "did not show significant binding"}]}, {"molecule": "5F9/MRK16: anti-CD47 antibody with two 5F9 heavy chains and two MRK16 light chains", "values": [{"measurement": "binding to cynomolgus erythrocytes", "setting": "cynomolgus RBCs", "result": "does not significantly bind"}, {"measurement": "binding to human erythrocytes", "setting": "[3]", "result": "does not significantly bind"}, {"measurement": "effect on tumor volume with paclitaxel (chemosensitization)", "setting": "[1]", "result": "not observed"}, {"measurement": "effect on tumor volume without paclitaxel", "setting": "[1]", "result": "no significant effect on tumor volume"}]}, {"molecule": "CC[C@]1(O)C[C@H]2CN(CCc3c([nH]c4ccccc34)[C@@](C(=O)OC)(c3cc4c(cc3OC)N(C=O)[C@H]3[C@@](O)(C(=O)OC)[C@H](OC(C)=O)[C@]5(CC)C=CCN6CC[C@]43[C@@H]65)C2)C1", "note": "[Vincristine alone, vincristine]", "values": [{"measurement": "IC50", "setting": "N6/ADR cells", "result": 543, "unit": "nM"}]}, {"molecule": "atezolizumab", "values": [{"measurement": "EC50", "setting": "[4]", "result": 0.29, "unit": "nM"}]}, {"molecule": "C/C=C/C[C@@H](C)C(=O)[C@H]1C(=O)N[C@@H](C(C)C)C(=O)N(C)CC(=O)N(C)[C@@H](CC(C)C)C(=O)N[C@@H](C(C)C)C(=O)N(C)[C@@H](CC(C)C)C(=O)N[C@@H](C)C(=O)N[C@H](C)C(=O)N(C)[C@@H](CC(C)C)C(=O)N(C)[C@@H](CC(C)C)C(=O)N(C)[C@@H](C(C)C)C(=O)N1C", "note": "[valspodar, reference compound]", "values": [{"measurement": "body weight", "setting": "NALM6 ADR cells; valspodar result in combination with paclitaxel 20 mg/kg", "result": "significant reduction in body weight"}]}, {"molecule": "CC(=O)O[C@H]1C(=O)[C@@]2(C)[C@H]([C@H](OC(=O)c3ccccc3)[C@]3(O)C[C@H](OC(=O)[C@H](O)[C@@H](NC(=O)c4ccccc4)c4ccccc4)C(C)=C1C3(C)C)[C@]1(OC(C)=O)CO[C@@H]1C[C@@H]2O", "note": "[paclitaxel, reference compound]", "values": [{"measurement": "tumor growth inhibition", "setting": "NALM6 cells", "result": "significant (p<0.0001) tumor growth inhibition"}, {"measurement": "tumor growth inhibition", "setting": "NALM6 ADR cells; paclitaxel 5 mg/kg", "result": "significantly less tumor growth inhibition"}, {"measurement": "tumor growth inhibition", "setting": "NALM6 ADR cells; paclitaxel 20 mg/kg", "result": "modest inhibition"}, {"measurement": "erythema at the infusion site", "setting": "[5]", "result": "minimal erythema"}]}]}
